Measured values reported in patent US8951982B2, “Methods and compositions for the treatment of eye disorders with increased intraocular pressure” (Sylentis S.A.U., priority 2004, dated 2015).
d = 2'-deoxy (DNA)

Assays:
[1] = system: Normotensive New Zealand White rabbits; experiment: In vivo rabbit model of IOP (contact tonometer); settings: for IOP Reduction (% of saline control): mean normalized maximum percentage of IOP reduction ± SD, topical to corneal surface, once daily for four consecutive days; for decrease of IOP over a saline control: figure legends (FIGS. 5-8), 256 μg dose of siRNA per administration
Description: Normotensive New Zealand White rabbits (males, 2-3 kg) were used in the in vivo assays. The animals were kept in individual cages with free access to food and water. Animals were submitted to artificial 12 hours light/darkness cycles to avoid uncontrolled circadian oscillations of IOP and all experiments were performed at the same time of day to control for any fluctuations in IOP due to circadian oscillations. Animal handling and treatment were carried out in accordance with the European Communities Council Directive (86/609/EEC) and the statement of the Association for Research in Vision and Ophthalmology on the Use of Animals in Ophthalmic and Vision Research. Each animal was used for only one experiment.
IOP measurements were done using a contact tonometer (TonoPen XL, Mentor, Norwell, Mass.) due to past success of measuring intraocular pressures within the range of 3 to 30 mm Hg in rabbits (Abrams et al., 1996, Invest Ophthalmol Vis Sci. 37:940-4). Measurements were performed by delicately applying the tonometer's sensor to the corneal surface of the animal. All measurements fell within the 3 to 30 mm Hg interval with the mean baseline value of intraocular pressure being 17.0±0.39 mm Hg for untreated animals (n=100). In order to avoid distress to the animal, rabbits were topically anesthetized (10 μl of oxibuprocaine/tetracaine, 0.4%/1%, in a saline solution (1/4 v:v)) prior to IOP measurement.
Commercially available drugs were typically administered to the animals by instilling a small volume (typically 40 μl) on the corneal surface. Contralateral eyes were treated with the vehicle alone and were used as controls in each experiment.
siRNA molecules or commercially available drugs were typically administered to the animals as follows. Doses of siRNA in saline solution (0.9% w/v) to a final volume of 40 μl were applied to the corneal surface of one eye each day during four consecutive days. The opposite eye was taken as a control and 40 μl of sterile saline (0.9% w/v) was instilled on it at the same time points. Commercially available drugs were typically administered to the animals by instilling a small volume (typically 40 μl) on the corneal surface. Contralateral eyes were treated with the vehicle alone and were used as controls in each experiment. The IOP was measured before each application and at 2 h, 4 h and 6 h following the instillation for 10 days.
The data are summarized in Table 2 where values represent the mean of the normalized maximum percentage of IOP reduction after siRNA treatment and their standard deviations. The decrease in IOP was statistically significant for all the treated targets.

[2] = system: PTGS2; experiment: siRNA transfection of cells, real time PCR of target gene expression; format: cell-based; settings: 100 nM siRNA, mean ± SD
Description: Cells (either NPE, OMDC, or HEK293 cells) were incubated with various siRNA molecules and assayed for expression of the native mRNA corresponding to the siRNA molecule. One day prior to transfection, 2−4×10^5 cells were seeded into each well of a 6 well plate in 3 ml of growth medium (DMEM, 10% serum, antibiotics and glutamine) and incubated under normal growth conditions (37° C. and 5% CO2). Lipofectamine 2000 Reagent (Invitrogen Corporation, Carlsbad, Calif.) was used to transfect the cells with the siRNA molecules. The protocol supplied by the manufacturer was followed. Briefly, siRNA molecules were added to cells that were 30%-50% confluent to a final concentration of 100 nM. Prior to addition to the cells, the siRNA molecule was diluted in 250 μl DMEM and incubated at room temperature for 5 minutes. The siRNA was then mixed with 6 μl of Lipofectamine 2000 Reagent that also had been diluted in 250 μl DMEM and the mixture was incubated at room temperature for 20 minutes. The siRNA/Lipofectamine mixture was added to the cells drop-wise with 2 ml of fresh growth medium low in antibiotics. After swirling the plates to ensure uniform distribution of the transfection complexes, the cells were incubated under normal growth conditions for 24 hours. After incubation with either of the transfection complexes, the medium was removed and replaced with 3 ml of fresh complete growth medium. mRNA was collected from cells at 24, 48 and 72 hours post-transfection.
After transfection and incubation with a siRNA molecule, total RNA fractions were extracted from cells using protocols well known in the art. The effect of siRNAs on target gene expression was analyzed by real time PCR and semi-quantitative PCR according to standard protocols. Approximately 250 ng of total RNA was used for reverse transcription followed by PCR amplification with specific primers for the target gene in a reaction mixture containing SYBR Green I Dye (Applied Biosystems, Foster City, Calif.). Basic PCR conditions comprised an initial step of […], followed by 40 cycles of 5 s at 95° C., 10 s at 62° C. and 15 s at 72° C. Quantification of beta-actin mRNA was used as a control for data normalization.
The values represent the mean of the percentage of siRNA interference of each gene expression once normalized with the control cells and their standard deviations.

Substance	IOP Reduction (% of saline control) [1]	further results
SEQ ID NO: 1859: siRNA targeting AGTR1; rabbit homolog of SEQ ID NO: 705 (ACUCAAGACUGUGGCCAGU; 3' dTdT, sugars by position and backbone not given here; duplex siRNA; listed as Oryctolagus sp.)	9.72 ± 1.35%	
SEQ ID NO: 139: siRNA targeting human adrenergic, beta-2-, receptor (ADRB2) (CAUUGUGCAUGUGAUCCAG; listed as RNA, chemistry not given here; listed as Homo sapiens)		decrease of IOP over a saline control [1]: 22%
SEQ ID NO: 1841: siRNA targeting rabbit adrenergic, beta-2-, receptor; rabbit homolog of SEQ ID NO: 139 (CAUCGUGCACGUGAUCCAG; 3' dTdT, sugars by position and backbone not given here; duplex siRNA; listed as Oryctolagus sp.)	21.18 ± 1.88%	
SEQ ID NO: 1838: siRNA targeting rabbit carbonic anhydrase II; rabbit homolog of SEQ ID NO: 73 (GAUUGGCAGUGCUACACCA; 3' dTdT, sugars by position and backbone not given here; duplex siRNA; listed as Oryctolagus sp.)	24.84 ± 3.41%	
SEQ ID NO: 1850: siRNA targeting PTGS1; rabbit homolog of SEQ ID NO: 322 (CGUGAGCUAUUACACGCGU; 3' dTdT, sugars by position and backbone not given here; duplex siRNA; listed as Oryctolagus sp.)	14.62 ± 1.93%	
SEQ ID NO: 426: siRNA targeting PTGS2 (prostaglandin endoperoxide synthase 2) (GCAGGCUAAUACUGAUAGG; 3' dTdT, sugars by position and backbone not given here; listed as Homo sapiens)	23.78 ± 2.27%	% of gene transcript level in control cells ([2]; 24 h post-transfection): 68.68 ± 12.48%; % of gene transcript level in control cells ([2]; 48 h post-transfection): 70.17 ± 19.21%; decrease of IOP over a saline control [1]: 22%
SEQ ID NO: 774: siRNA targeting AGTR2 (angiotensin II receptor, type 2) (GCAUCUUAUAUAGUUCCCC; two-thymidine 3' overhang, other chemistry not given here; listed as Homo sapiens)	11.22 ± 1.53%	
SEQ ID NO: 1846: siRNA targeting rabbit acetylcholinesterase; rabbit homolog of SEQ ID NO: 189 (CCGUGAGCUGAGUGAGGAC; two-thymidine 3' overhang, other chemistry not given here; listed as Oryctolagus sp.)	25.25 ± 2.70%	
SEQ ID NO: 189: siRNA targeting human acetylcholinesterase (ACHE) (CCGUGAGCUGAGCGAGGAC; two-thymidine 3' overhang, other chemistry not given here; listed as Homo sapiens)		decrease of IOP over a saline control [1]: 25%
SEQ ID NO: 421: siRNA targeting PTGS2 (CACAACAGAGUAUGCGAUG; 3' dTdT, sugars by position and backbone not given here; listed as Homo sapiens)		% of gene transcript level in control cells ([2]; 24 h post-transfection): 81.00 ± 13.54%; % of gene transcript level in control cells ([2]; 48 h post-transfection): 66.85 ± 18.67%
SEQ ID NO: 5: siRNA targeting carbonic anhydrase IV (CA4) (CAUCGUCACCACCAAGGCA; two-thymidine 3' overhang, other chemistry not given here; listed as Homo sapiens)	14.47 ± 5.00%	decrease of IOP over a saline control [1]: 16%
SEQ ID NO: 522: siRNA targeting carbonic anhydrase XII (CA12) (AUGAUCAACAACUUCCGGC; two-thymidine 3' overhang, other chemistry not given here; listed as Homo sapiens)	24.30 ± 1.29%	
SEQ ID NO: 1399: siRNA targeting ATP1A1 (ATPase, Na+/K+ transporting, alpha 1 polypeptide) (CUGGAACUCUGACUCAGAA; 3' dTdT, sugars by position and backbone not given here; listed as Homo sapiens)	18.13 ± 1.39%	
SEQ ID NO: 105: siRNA targeting adrenergic, beta-1-, receptor (ADRB1) (CGACCCCAAGUGCUGCGAC; 3' dTdT, sugars by position and backbone not given here; listed as Homo sapiens)	28.04 ± 2.98%	decrease of IOP over a saline control [1]: 25%
SEQ ID NO: 1860: siRNA targeting ACE1; rabbit homolog of SEQ ID NO: 866 (CUGGAACUAUAACACCAAC; two-thymidine 3' overhang, other chemistry not given here; listed as Oryctolagus sp.)	17.51 ± 1.28%	
SEQ ID NO: 1856: siRNA, rabbit homolog of SEQ ID NO: 546; target printed ADRAIA (GACCGACAAAUCCGACUCG; 3' dTdT, sugars by position and backbone not given here; duplex siRNA; listed as Oryctolagus sp.)	9.51 ± 1.04%	
SEQ ID NO: 1858: siRNA, rabbit homolog of SEQ ID NO: 619; target printed ADRAM (GAACUUUCAUGAGGACACC; 3' dTdT, sugars by position and backbone not given here; duplex siRNA; listed as Oryctolagus sp.)	17.48 ± 1.30%	
SEQ ID NO: 1848: siRNA targeting rabbit selectin E (SELE); rabbit homolog of SEQ ID NO: 262 (GCCAACUUGUAAAGCUGUG; 3' dTdT, sugars by position and backbone not given here; duplex siRNA; listed as Oryctolagus sp.)	21.80 ± 1.74%	
SEQ ID NO: 477: siRNA targeting PTGS2 (CACUGCCUCAAUUCAGUCU; 3' dTdT, sugars by position and backbone not given here; listed as Homo sapiens)		% of gene transcript level in control cells ([2]; 24 h post-transfection): 75.45 ± 14.71%; % of gene transcript level in control cells ([2]; 48 h post-transfection): 61.83 ± 16.96%
SEQ ID NO: 1820: siRNA targeting ATP1B2 (ATPase, Na+/K+ transporting, beta 2 polypeptide) (GUUCCACGUGAACUACACA; 3' dTdT, sugars by position and backbone not given here; duplex siRNA; listed as Homo sapiens)	16.32 ± 0.91%	
